Measurements taken from US20220031853A1, “HSP90-TARGETING CONJUGATES AND FORMULATIONS THEREOF” (TARVEDA THERAPEUTICS, INC., priority 2018, published 2022).

Tests used:
[1] = tested on: BT474 (breast) tumor cells; experiment: Tumor cell cytotoxicity assay (CellTiter-Glo), BT474; assay type: cell-based; details: Homo sapiens, BT-474, 72 hrs, CellTiter-Glo ATP levels, read-out: in vitro cytotoxicity IC50
Experimental: (§1) Tumor cells were plated at 500-5,000 cells per well and incubated for 20-24 hrs at 37 °C at 5% CO2. Post cell incubation, compounds were reconstituted in DMSO to a stock concentration of 200 uM. A compound plate was then prepared containing a 10 point dilution in RPMI+10% FBS+0.25% DMSO. 5 uL of the dilution was then added for a final working concentration range of 10 uM to 0.0005 uM. Compounds and cells were then incubated for up to 72 hrs. Cells were then analyzed by CellTiter-Glo for ATP levels and percent inhibition calculated.
as §1, with “BT474 (breast), LS174T (colon), or HCT-116 (colon) tumor” for “Tumor”, “2500” for “500-5,000”, “for” for “for up to”

[2] = tested on: LS174T (colon) tumor cells; experiment: Tumor cell cytotoxicity assay (CellTiter-Glo), LS174T; assay type: cell-based; details: Homo sapiens, 72 hrs, CellTiter-Glo ATP levels, read-out: in vitro cytotoxicity IC50
Experimental: as §1
as §1, with “BT474 (breast), LS174T (colon), or HCT-116 (colon) tumor” for “Tumor”, “2500” for “500-5,000”, “for” for “for up to”

[3] = tested on: HCT-116 (colon) tumor cells; experiment: Tumor cell cytotoxicity assay (CellTiter-Glo), HCT-116; assay type: cell-based; details: Homo sapiens; HCT-116 cells, 72 hrs, CellTiter-Glo ATP levels; read-out: in vitro cytotoxicity IC50
Experimental: as §1
as §1, with “BT474 (breast), LS174T (colon), or HCT-116 (colon) tumor” for “Tumor”, “2500” for “500-5,000”, “for” for “for up to”

[4] = tested on: NCI-H460 cells (non-small cell lung cancer); experiment: Tumor cell cytotoxicity assay (CellTiter-Glo), NCI-H460; assay type: cell-based; details: Homo sapiens, 48 hrs, CellTiter-Glo ATP levels, read-out: in vitro cytotoxicity IC50
Experimental: as §1
NCI-H460 cells (non-small cell lung cancer) were plated at 500 cells per well and incubated for 20-24 hrs at 37° C. at 5% CO2. Post cell incubation, compounds were reconstituted in DMSO to a stock concentration of 200 uM. A compound plate was then prepared containing a 10 point dilution in RPMI+10% FBS+0.25% DMSO. 5 uL of the dilution was then added for a final working concentration range of 10 uM to 0.0005 uM. Compounds and cells were then incubated for 48 hrs. Cells were then analyzed by CellTiter-Glo for ATP levels and percent inhibition calculated.

[5] = target: T1, purified recombinant HSP90a (Homo sapiens, UniProt P07900); experiment: HSP90a Assay Kit, fluorescence polarization competition with fluorescently labeled geldanamycin; details: read-out: HSP90 Binding Kd
T1 construct: purchased
Experimental: The bindings of the conjugates to HSP90 were studied with the HSP90a Assay Kit. The HSP90a Assay Kit is designed for identification of HSP90a inhibitors using fluorescence polarization. The assay is based on the competition of fluorescently labeled geldanamycin for binding to purified recombinant HSP90a. The key to the HSP90a Assay Kit is the fluorescently labeled geldanamycin. The fluorescently labeled geldanamycin is incubated with a sample containing HSP90a enzyme to produce a change in fluorescent polarization that can then be measured using a fluorescence reader.

In the case of `CCNC(=O)c1nnc(-c2cc(C(C)C)c(O)cc2O)n1-c1ccc(CN2CCN(C(=O)Cc3ccc(OC(=O)N(CC)C4CCN(C(=O)c5ccc(NC(=O)Nc6ccc(-c7nc(N8CCOCC8)nc(N8CCOCC8)n7)cc6)cc5)CC4)cc3)CC2)cc1` [Compound 18], the IC50 [1] is reported as 1.64 µM, the IC50 [2] is reported as 3.37 µM and the IC50 [3] is reported as 0.246 µM. For the same compound, the IC50 [4] was 0.389 µM.

With `CCNC(=O)c1nnc(-c2cc(C(C)C)c(O)cc2O)n1-c1ccc(CN2CCN(C(=O)Cc3ccc(OC(=O)N4CCN(c5ccc(-n6c(=O)n(C)c7cnc8ccc(-c9ccc(OC)nc9)cc8c76)cc5C(F)(F)F)CC4)cc3)CC2)cc1` [Compound 22] the Kd [5] was 0.00079 µM.

With `CCNC(=O)c1nnc(-c2cc(C(C)C)c(O)cc2O)n1-c1ccc(CN2CCN(C(=O)[C@H](N)Cc3ccc(OC(=O)N4CCN(c5ccc(-n6c(=O)n(C)c7cnc8ccc(-c9ccc(OC)nc9)cc8c76)cc5C(F)(F)F)CC4)cc3)CC2)cc1` [Compound 26] the Kd [5] was 0.00122 µM.
